Results from PubChem BioAssay AID1963439 (Molecular Pharmacology Branch, DTP, NCI, 2024).

Test system: NCI-H196 complex spheroids with HUVEC/MSC, growth % T/C
Experiment: Anticancer human tumor NCI-H196 cell line growth inhibition [Asc];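 also: spheroids exposed to compound for 7 days before measurement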;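 as to viability, T/C: 100% = DMSO vehicle control wells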
Details: for IC50: curve of first compound; for viability, T/C: stronger effect = lower value
Method in brief: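 Tumor cells were grown as complex spheroids with human endothelial cells (HUVEC) and human mesenchymal stem cells as stroma. Agents were tested alone and in combination, in half-log steps down from the clinical Cmax, or from 10 microM where Cmax was unknown.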

[1] = second compound 0.1 µM, first compound 0.0316 µM
[2] = second compound 0.1 µM, first compound 0.1 µM
[3] = second compound 0.1 µM, first compound 0.316 µM
[4] = second compound 0.1 µM, first compound 1 µM
[5] = second compound 0.1 µM, first compound 3.16 µM
[6] = second compound 0.1 µM, first compound 10 µM
[7] = second compound 0.316 µM, first compound 0.0316 µM
[8] = second compound 0.316 µM, first compound 0.1 µM
[9] = second compound 0.316 µM, first compound 0.316 µM
[10] = second compound 0.316 µM, first compound 1 µM
[11] = second compound 0.316 µM, first compound 3.16 µM
[12] = second compound 0.316 µM, first compound 10 µM
[13] = second compound 1 µM, first compound 0.0316 µM
[14] = second compound 1 µM, first compound 0.1 µM
[15] = second compound 1 µM, first compound 0.316 µM
[16] = second compound 1 µM, first compound 1 µM
[17] = second compound 1 µM, first compound 3.16 µM
[18] = second compound 1 µM, first compound 10 µM
[19] = second compound 3.16 µM, first compound 0.0316 µM
[20] = second compound 3.16 µM, first compound 0.1 µM
[21] = second compound 3.16 µM, first compound 0.316 µM
[22] = second compound 3.16 µM, first compound 1 µM
[23] = second compound 3.16 µM, first compound 3.16 µM
[24] = second compound 3.16 µM, first compound 10 µM
[25] = second compound 10 µM, first compound 0.0316 µM
[26] = second compound 10 µM, first compound 0.1 µM
[27] = second compound 10 µM, first compound 0.316 µM
[28] = second compound 10 µM, first compound 1 µM
[29] = second compound 10 µM, first compound 3.16 µM
[30] = second compound 10 µM, first compound 10 µM

C=C(F)C(=O)N1CCN(c2nc(OCC3CCCN3C)nc3c2CCN(c2cccc4cccc(Cl)c24)C3)CC1CC#N (stereo not given) + Cc1c(S(C)(=O)=O)c(-c2cc(F)cc(N3CCN(c4ccc(NS(=O)(=O)c5ccc(NC(CCN6CCC(C(=O)OCCCP(=O)(O)O)CC6)CSc6ccccc6)c(S(=O)(=O)C(F)(F)F)c5)cc4)CC3)c2)c(-c2ccc(Cl)cc2)n1C(C)C
IC50 (second compound 0.1 µM): > 10 µM
IC50 (second compound 0.316 µM): > 10 µM
IC50 (second compound 1 µM): 5.96 µM
IC50 (second compound 3.16 µM): 5.08 µM
IC50 (second compound 10 µM): 4.48 µM
viability, T/C [1]: 95.8%
viability, T/C [2]: 94.5%
viability, T/C [3]: 92%
viability, T/C [4]: 99.9%
viability, T/C [5]: 107%
viability, T/C [6]: 74.8%
viability, T/C [7]: 87.6%
viability, T/C [8]: 95%
viability, T/C [9]: 99.3%
viability, T/C [10]: 86.4%
viability, T/C [11]: 87.4%
viability, T/C [12]: 83.5%
viability, T/C [13]: 96.6%
viability, T/C [14]: 81.3%
viability, T/C [15]: 93.5%
viability, T/C [16]: 74.9%
viability, T/C [17]: 82%
viability, T/C [18]: 25.5%
viability, T/C [19]: 82.7%
viability, T/C [20]: 80.6%
viability, T/C [21]: 78.5%
viability, T/C [22]: 83.7%
viability, T/C [23]: 85.5%
viability, T/C [24]: 4.09%
viability, T/C [25]: 75.5%
viability, T/C [26]: 70.1%
viability, T/C [27]: 70.4%
viability, T/C [28]: 67.1%
viability, T/C [29]: 68.5%
viability, T/C [30]: 8.1%

C=CC(=O)N1CCN(c2nc(=O)n(-c3c(C)ccnc3C(C)C)c3nc(-c4c(O)cccc4F)c(F)cc23)C(C)C1 (stereo not given) + Cc1c(S(C)(=O)=O)c(-c2cc(F)cc(N3CCN(c4ccc(NS(=O)(=O)c5ccc(NC(CCN6CCC(C(=O)OCCCP(=O)(O)O)CC6)CSc6ccccc6)c(S(=O)(=O)C(F)(F)F)c5)cc4)CC3)c2)c(-c2ccc(Cl)cc2)n1C(C)C
IC50 (second compound 0.1 µM): > 10 µM
IC50 (second compound 0.316 µM): > 10 µM
IC50 (second compound 1 µM): > 10 µM
IC50 (second compound 3.16 µM): > 10 µM
IC50 (second compound 10 µM): > 10 µM
viability, T/C [1]: 103%
viability, T/C [2]: 93.2%
viability, T/C [3]: 96.1%
viability, T/C [4]: 102%
viability, T/C [5]: 96%
viability, T/C [6]: 97.9%
viability, T/C [7]: 92.1%
viability, T/C [8]: 97.4%
viability, T/C [9]: 96%
viability, T/C [10]: 109%
viability, T/C [11]: 104%
viability, T/C [12]: 96.5%
viability, T/C [13]: 95.5%
viability, T/C [14]: 92.4%
viability, T/C [15]: 93.9%
viability, T/C [16]: 88%
viability, T/C [17]: 110%
viability, T/C [18]: 85.7%
viability, T/C [19]: 87.9%
viability, T/C [20]: 87.1%
viability, T/C [21]: 83.8%
viability, T/C [22]: 87.8%
viability, T/C [23]: 84.9%
viability, T/C [24]: 80%
viability, T/C [25]: 73.9%
viability, T/C [26]: 79.6%
viability, T/C [27]: 79.8%
viability, T/C [28]: 75.3%
viability, T/C [29]: 78.1%
viability, T/C [30]: 66.8%

CCN1C(C(=O)NC23CCC(C(=O)O)(CC2)CC3)C(c2cccc(Cl)c2F)C2(C(=O)Nc3cc(Cl)ccc32)C12CCCCC2 (stereo not given) + Cc1c(S(C)(=O)=O)c(-c2cc(F)cc(N3CCN(c4ccc(NS(=O)(=O)c5ccc(NC(CCN6CCC(C(=O)OCCCP(=O)(O)O)CC6)CSc6ccccc6)c(S(=O)(=O)C(F)(F)F)c5)cc4)CC3)c2)c(-c2ccc(Cl)cc2)n1C(C)C
IC50 (second compound 0.1 µM): > 3 µM
IC50 (second compound 0.316 µM): > 3 µM
IC50 (second compound 1 µM): > 3 µM
IC50 (second compound 3.16 µM): 2.85 µM
IC50 (second compound 10 µM): 1.66 µM
viability, T/C (second compound 0.1 µM, first compound 0.00949 µM): 89.3%
viability, T/C (second compound 0.1 µM, first compound 0.03 µM): 104%
viability, T/C (second compound 0.1 µM, first compound 0.0949 µM): 91.2%
viability, T/C (second compound 0.1 µM, first compound 0.3 µM): 91.5%
viability, T/C (second compound 0.1 µM, first compound 0.949 µM): 92.2%
viability, T/C (second compound 0.1 µM, first compound 3 µM): 86.4%
viability, T/C (second compound 0.316 µM, first compound 0.00949 µM): 89.6%
viability, T/C (second compound 0.316 µM, first compound 0.03 µM): 89.7%
viability, T/C (second compound 0.316 µM, first compound 0.0949 µM): 95.5%
viability, T/C (second compound 0.316 µM, first compound 0.3 µM): 85.3%
viability, T/C (second compound 0.316 µM, first compound 0.949 µM): 88.3%
viability, T/C (second compound 0.316 µM, first compound 3 µM): 69.4%
viability, T/C (second compound 1 µM, first compound 0.00949 µM): 84.3%
viability, T/C (second compound 1 µM, first compound 0.03 µM): 83%
viability, T/C (second compound 1 µM, first compound 0.0949 µM): 87.5%
viability, T/C (second compound 1 µM, first compound 0.3 µM): 80.8%
viability, T/C (second compound 1 µM, first compound 0.949 µM): 78.9%
viability, T/C (second compound 1 µM, first compound 3 µM): 62.6%
viability, T/C (second compound 3.16 µM, first compound 0.00949 µM): 77.9%
viability, T/C (second compound 3.16 µM, first compound 0.03 µM): 82.5%
viability, T/C (second compound 3.16 µM, first compound 0.0949 µM): 72.5%
viability, T/C (second compound 3.16 µM, first compound 0.3 µM): 72.3%
viability, T/C (second compound 3.16 µM, first compound 0.949 µM): 66.2%
viability, T/C (second compound 3.16 µM, first compound 3 µM): 48.7%
viability, T/C (second compound 10 µM, first compound 0.00949 µM): 70.2%
viability, T/C (second compound 10 µM, first compound 0.03 µM): 79.1%
viability, T/C (second compound 10 µM, first compound 0.0949 µM): 70.1%
viability, T/C (second compound 10 µM, first compound 0.3 µM): 73.2%
viability, T/C (second compound 10 µM, first compound 0.949 µM): 59%
viability, T/C (second compound 10 µM, first compound 3 µM): 38.6%
